The assay deals with CEM cells HIV-1 protection, formazan growth assay. Description: NCI AIDS Antiviral Assay. Particulars: for IC50: measured here: growth of uninfected CEM cells. The method in brief: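 Steps: treat uninfected and HIV-1-infected human CEM cells at five drug levels; quantify growth by soluble formazan; retest any compound reaching 50% protection; classify actives from the retest.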

SMILES strings stand for the structures. “And” between values parts separate entries of the source, which are not always exact repeats. Equal values may be shown once. The source made the active and inactive calls.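 How the source made its calls: active means compounds giving half or more protection of infected cells from virus-caused growth loss, again on retest; inactive means the rest.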

As for `CC(=O)OCC1OC(n2c(C)c(N=Nc3ccc(C)cc3)c(C)c(C#N)c2=S)C(OC(C)=O)C(OC(C)=O)C1OC(C)=O` (stereo unspecified), the EC50 was > 200 µM and the IC50 was > 200 µM.

As for `O=C(O)C(SSC(C(=O)O)(c1ccccc1)c1ccccc1)(c1ccccc1)c1ccccc1`, the EC50 is > 200 µM and the IC50 was 89.1 µM.

In the case of `COc1cc(CC(C)N[C@@H](C)c2ccccc2)cc(OC)c1` (stereo partly specified), the EC50 was > 200 µM; the IC50 was 18.6 µM and 64.6 µM.

On to `O=[N+]([O-])c1cccc2nc3ccccc3c(NCCCNc3c4ccccc4nc4cccc([N+](=O)[O-])c34)c12`, for which the EC50 was > 200 µM and the IC50 was 0.0631 µM.

With `O=C(Nc1ccc(Cl)c(Cl)c1)C1C(=O)N(c2ccc(Cl)c(Cl)c2)C(=O)/C1=N\O` (stereo unspecified), the outcome was inactive.

As for `O=C1/C(=C/c2cccc([N+](=O)[O-])c2)Cc2ccccc21`, the EC50 is > 200 µM and the IC50 is > 200 µM.

Regarding `NC(=O)c1cc(/C=C/c2ccccc2)on1`, the EC50 was > 200 µM and the IC50 was > 200 µM.

On to `O=C(C=Nc1ccccc1C(=O)[O-])c1ccco1.O=C(C=Nc1ccccc1C(=O)[O-])c1ccco1.[Cu+2]`, for which the EC50 is > 1.91 µM and the IC50 is > 1.91 µM.

Regarding `NC(=O)N/N=C1/CC2CCCCC2c2ccccc21` (stereo unspecified), the EC50 is > 200 µM and the IC50 was 34.7 µM.

With `CCOC(=O)C(Cc1ccccc1)C(=O)OCC`, the EC50 is > 105 µM and the concentration for half-maximal inhibition (IC50) was > 105 µM.

Regarding `CC(=O)CC(=O)CCC(=O)Nc1cccc(C(F)(F)F)c1`, the result was inactive.

Consider `N#CC(N)=Nc1ccccc1`, for which the EC50 was > 617 µM and the 50% inhibitory concentration (IC50) is 347 µM.

On to `NC(=S)N/N=C(\CC1OC(=O)c2ccccc21)c1ccc(Cl)cc1` (stereo unspecified), for which the EC50 is > 83.2 µM and the IC50 came to 7.24 µM.

On to `NC(N)=NS(=O)(=O)c1ccc(NC(=O)c2ccc3[nH]c4ccccc4c(=O)c3c2)cc1`, for which the EC50 was > 200 µM and the concentration for half-maximal inhibition (IC50) was > 200 µM.

In the case of `C[S+]1Cc2nc3ccccc3n2C1c1c(F)cccc1F` (stereo unspecified), the EC50 was > 178 µM and the 50% inhibitory concentration (IC50) came to 79.4 µM.

As to `CCOC(=O)C1CCCC1S(=O)(=O)c1ccc(C)cc1` (stereo unspecified), the EC50 is > 200 µM and the IC50 is > 200 µM.

As to `S=C1N(c2ccc(Br)cc2)C2=Nc3ccccc3SC(=C2N=Nc2ccccc2)N1c1ccc(Cl)cc1`, the EC50 is > 37.2 µM and the IC50 was determined as 17 µM.

In the case of `N#C/C(=C\c1ccc(-c2ccccc2)cc1)c1ccccc1`, the EC50 is > 200 µM and the IC50 worked out at 170 µM.

`Brc1c(OCc2ccccc2)ccc2ccccc12`: the EC50 was > 200 µM and the half-maximal inhibitory concentration (IC50) came to 191 µM.

For `O=C(O)CCSCc1cc(C(=O)Nc2ccc(/C=C/c3ccc(NC(=O)c4cc(CSCCC(=O)O)c5ccccc5c4O)cc3S(=O)(=O)O)c(S(=O)(=O)O)c2)c(O)c2ccccc12`, the 50% effective concentration (EC50) was 83.2 µM and the IC50 turned out to be 162 µM.

Turning to `Clc1ccc(COC(Cn2ccnc2)c2ccc(Cl)cc2Cl)cc1` (stereo unspecified), the EC50 is > 200 µM and the IC50 came out at 34.7 µM.

With `COc1ccc2c(c1O)C(=O)C(CCC(=O)O)CC2` (stereo unspecified), the result was inactive.

With `CCOC(=O)c1ccc(/C(C#N)=C/c2ccc(Cl)cc2)cc1`, the EC50 was > 200 µM and the half-inhibitory concentration (IC50) was > 200 µM.

As for `CN(C)/C=N\c1nn[nH]n1`, the EC50 is > 200 µM and the IC50 was 3.63 µM.

On to `Cc1c(N)c(=O)oc2cc3occc(=O)c3cc12`, for which the EC50 is > 20.4 µM and the 50% inhibitory concentration (IC50) turned out to be 13.5 µM.

Turning to `c1ccc(P2(c3ccccc3)=NSN=S=N2)cc1`, the EC50 is > 200 µM and the half-inhibitory concentration (IC50) came to 74.1 µM.

Consider `O=C1OC(/C=C/c2ccccc2)C(=O)C1=O` (stereo unspecified), for which the EC50 is > 1150 µM and the half-inhibitory concentration (IC50) was > 1150 µM.

On to `CCN(CC)CCC(=O)c1ccc(Oc2ccccc2)cc1`, for which the EC50 was > 200 µM and the IC50 is 17.4 µM.

Consider `O=C1[C@@H]2C(c3ccccc3[N+](=O)[O-])=NO[C@@H]2C(=O)N1c1ccc(Cc2ccc(N3C(=O)[C@H]4C(c5ccccc5[N+](=O)[O-])=NO[C@H]4C3=O)cc2)cc1`, for which the EC50 is > 20 µM and the concentration for half-maximal inhibition (IC50) is > 20 µM.

For `COc1ccc2c(c1)c1c(n2CCN2CCOCC2)-c2cccc(OC)c2CC1`, the outcome was inactive.

`COc1cc(/C=C\C(=O)O)ccc1O`: the EC50 is > 200 µM and the half-inhibitory concentration (IC50) is > 200 µM.

Consider `CCN(CC)c1ccc2nc3c4ccccc4c(=O)cc-3n(-c3ccccc3)c2c1`, for which the EC50 was > 200 µM and the IC50 was 4.57 µM.

In the case of `CCCCCCCC(=O)OC[C@H](C[As](=O)(O)O)OC(=O)CCCCCCC`, the EC50 is > 200 µM and the IC50 came out at 7.76 µM.

In the case of `O=c1sc2ccccc2n1CC1CS1` (stereo unspecified), the EC50 was > 302 µM and the IC50 came to 11 µM.

For the compound `O=C(O)C1CCCCC1c1c2ccc(=O)c(O)c-2oc2c(O)c(O)ccc12` (stereo unspecified), the EC50 was 17 µM and the IC50 stood at 83.2 µM.

Regarding `Cc1cc(C)nc(NS(=O)(=O)c2ccc(N=c3c4ccccc4n(-c4ccccc4)c4ccccc34)cc2)n1`, the outcome was inactive.

For the compound `CN(C)CC(C)(C)/C(=N\Nc1ccccc1)c1ccccc1`, the result was inactive.

Turning to `CC1(C)COC2=C(C1)C(=O)c1ccccc1C2=O`, the EC50 is > 200 µM and the 50% inhibitory concentration (IC50) worked out at 0.708 µM.

With `CCCC1OC[C@H]2OC(n3cc(C)c(=O)[nH]c3=O)C[C@H]2N1O` (stereo partly specified), the concentration for a half-maximal effect (EC50) is 52.5 µM and the concentration for half-maximal inhibition (IC50) was > 200 µM.

For `Cc1cc(S(=O)(=O)Nc2nncn2-c2ccc(Cl)cc2)c(S)cc1Cl`, the result was inactive.

Consider `COc1ccccc1NC(=O)CC(=O)NN`, for which the EC50 was > 200 µM and the IC50 is > 200 µM.

As for `Cc1c2cccc-2c(OCCO)cc2c1[nH]c1ccccc12`, the EC50 is > 200 µM and the IC50 worked out at 2.88 µM.

Regarding `CC(=O)Oc1cc(-c2oc3cc(OC(C)=O)c(C4OC(CO)C(O)C(O)C4O)c(OC(C)=O)c3c(=O)c2O)c(OC(C)=O)cc1O` (stereo unspecified), the EC50 is > 200 µM and the IC50 is > 200 µM.

`O=[N+]([O-])c1ccc(Nc2nnc(-c3ccc(Cl)cc3Cl)s2)cc1`: the outcome was inactive.

Take `[N-]=[N+]=C1N=CN=C1c1ncn[nH]1`: the EC50 was > 200 µM and the IC50 was 4.07 µM.

`COC(=O)C1=Nc2c(C)nn(-c3ccccc3)c2N=C(c2ccccc2)C1`: the EC50 is > 200 µM and the IC50 was > 200 µM.

`COc1ccc2c(c1)CCc1cc(OC)ccc1/[N+]([O-])=[N+]\2[O-]`: the EC50 was > 17.4 µM and the IC50 is > 17.4 µM.

On to `COCC(C)(C)N=CN1CCc2cc(OC)c(OC)cc2C1`, for which the EC50 was > 813 µM and the half-maximal inhibitory concentration (IC50) was > 813 µM.

Turning to `CNc1ccc(F)cc1SSc1cc(F)ccc1NC`, the EC50 is > 200 µM and the IC50 stood at 4.79 µM.

Turning to `CCN(CC)CC/C=C1\c2ccccc2Sc2ccc(Cl)cc21`, the outcome was inactive.

On to `CC(=O)NNc1nc(C)c(C(=O)NNC(=O)C(=O)Nc2ccccc2C#N)s1`, for which the EC50 is > 89.1 µM and the 50% inhibitory concentration (IC50) was found to be 51.3 µM.

Consider `C=CCN(N=O)C(=O)N(CCC)CCCCC(NC(C)=O)C(=O)NCc1ccccc1` (stereo unspecified), for which the outcome was inactive.

As for `N/N=C(\C(=O)Nc1c(Cl)cc([N+](=O)[O-])cc1Cl)C(c1cnc2ccc([N+](=O)[O-])cc2n1)[N+](=O)[O-]` (stereo unspecified), the EC50 was > 70.8 µM and the IC50 is > 70.8 µM.

Consider `CC(C)Oc1nc(N2CCNCC2)nc2c1CCCC2`, for which the result was inactive.

`CCN(CC)c1ccc2c(c1)Oc1ccc(N(CC)CC)cc1C21Oc2ccccc2-c2c1c1ccccc1n2CC` (stereo unspecified): the result was inactive.

Take `N#Cc1cnn2ccn(C3OC(COC(=O)c4ccccc4)C(OC(=O)c4ccccc4)C3OC(=O)c3ccccc3)c12` (stereo unspecified): the EC50 was > 200 µM and the IC50 was > 200 µM.

Regarding `CC(Nc1ccc(S(=O)(=O)N=C(N)N)cc1)c1c2ccccc2nc2ccccc12` (stereo unspecified), the result was inactive.

`COC(=O)c1ccccc1/C=C1\Cc2cc(C)c(C)cc2C1=O`: the EC50 is > 100 µM and the IC50 was > 100 µM.

For `C[N+](C)(CCCn1ccnc1[N+](=O)[O-])CCCn1ccnc1[N+](=O)[O-]`, the EC50 was > 200 µM and the 50% inhibitory concentration (IC50) was > 200 µM.

For `COc1cc(/C=C/C(=O)c2sc(NNC(C)=O)nc2C)ccc1O`, the EC50 is > 20.9 µM and the IC50 was > 20.9 µM.

In the case of `COc1ccccc1C=C1C(=O)OC(C)(C)OC1=O`, the outcome was inactive.

`CC(C)(C)c1cc(C2COC(=O)COCCOCC(=O)OCCOCCO2)cc(C(C)(C)C)c1O` (stereo unspecified): the EC50 was > 200 µM and the IC50 was found to be 178 µM.

Turning to `CC(C)=[CH][Sb]([Br])([CH]=C(C)C)([CH]=C(C)C)[c]1ccccc1`, the EC50 is > 562 µM and the IC50 is 6.76 µM.

Take `CC(Oc1ccc(OCC2CCCCC2)cc1)C(=O)NCc1ccco1` (stereo unspecified): the EC50 was > 28.2 µM and the half-maximal inhibitory concentration (IC50) was > 28.2 µM.

As to `Clc1ccc2nc3occ(Br)c3cc2c1`, the EC50 was > 13.2 µM and the IC50 was > 13.2 µM.

As to `CN(C)c1nc(=NCc2ccncc2)ss1`, the EC50 is > 200 µM and the IC50 was found to be 10.7 µM.

Take `CN(C)c1nc(Cl)c2c(-c3ccccc3)c(-c3ccccc3)oc2n1`: the result was inactive.

Consider `Cc1cc(Cl)c(O)c(C(=O)C(=O)C(O)c2ccc3c(c2)OCO3)c1` (stereo unspecified), for which the EC50 is > 200 µM and the half-inhibitory concentration (IC50) worked out at 2.45 µM.

As for `c1ccc(C2=NNc3cccc[n+]3C2)cc1`, the EC50 was > 871 µM and the IC50 amounted to 447 µM.

In the case of `O=C1C=C(NC(=O)c2ccc(Cl)cc2)c2ncccc2C1=O`, the result was inactive.

Turning to `O=c1c2ccccc2nc(-c2ccccc2)n1NC1OC(CO)C(O)C(O)C1O` (stereo unspecified), the outcome was inactive.

Turning to `O=S(=O)(O)c1cc(O)c(N=NC2S(=O)(=O)OCCOS2(=O)=O)c2ccccc12`, the EC50 was > 200 µM and the IC50 was 77.6 µM.

Consider `C=C(C)CC1=C(C(=S)NCCO[Si](C)(C)C(C)(C)C)C(OCC)(OCC)C1=O`, for which the EC50 is > 200 µM and the IC50 came to 11.5 µM.

Turning to `CN(C)CCOC1(Cc2ccc(F)cc2)CCC(C(C)(C)C)CC1` (stereo unspecified), the EC50 was > 200 µM; the half-maximal inhibitory concentration (IC50) was 3.89 µM and 3.98 µM.

Values taken from PubChem BioAssay AID179 (DTP/NCI, 2004).
